Results published in patent US8815921B2, “Active substance combination based on trifluorobutinyl compounds and exhibiting nematicidal and insecticidal properties” (priority 2003, dated 2014).
“And” between values parts separate entries of the source, which are not always exact repeats. Equal entries are not always repeated.

Key:
Format in all cases: in vivo
[1] = tested on: larvae of the mustard beetle (Phaedon cochleariae); assay: Phaedon-Larvae Test; settings: cabbage leaf dip
Description: (§1) To produce a suitable preparation of active compound, 1 part by weight of active compound is mixed with the stated amounts of solvent and emulsifier, and the concentrate is diluted with emulsifier containing water to the desired concentration.
(§2) Cabbage leaves (Brassica oleracea) are treated by being dipped into the preparation of active compound of the desired concentration and are populated with larvae of the mustard beetle (Phaedon cochleariae) while the leaves are still moist. After the desired period of time, the kill in percent is determined. 100% means that all beetle larvae have been killed; 0% means that none of the beetle larvae has been killed. The kill rates determined are inserted into Colby's formula (see sheet 34).

[2] = tested on: caterpillars of the diamondback moth (Plutella xylostella, sensitive strain); assay: Plutella Test, sensitive strain; settings: for Kill rate [%] after 6 days: 20 ppm
Description: as §1
as §2, with “caterpillars” for “larvae”, “diamondback moth (Plutella xylostella, sensitive strain)” for “mustard beetle (Phaedon cochleariae)”, “caterpillars” for “beetle larvae”

[3] = tested on: caterpillars of the army worm (Spodoptera frugiperda); assay: Spodoptera frugiperda Test
Description: as §1
as §2, with “caterpillars” for “larvae”, “army worm (Spodoptera frugiperda)” for “mustard beetle (Phaedon cochleariae)”, “caterpillars” for “beetle larvae”

[4] = tested on: green peach aphid (Myzus persicae); assay: Myzus Test
Description: as §1
Cabbage leaves (Brassica oleracea), which are heavily infested by the green peach aphid (Myzus persicae) are treated by being dipped into the preparation of active compound of the desired concentration. After the desired period of time, the kill in % is determined. 100% means that all aphids have been killed; 0% means that none of the aphids has been killed. The kill rates determined are inserted into Colby's formula (see sheet 1).

For `Cc1c(F)c(F)c(COC(=O)[C@@H]2[C@H](/C=C(\Cl)C(F)(F)F)C2(C)C)c(F)c1F` (racemic) [tefluthrin], the “Kill rate [%] after 3 days” value ([1]; 4 ppm) was 75%, the “Kill rate [%] after 3 days” value ([2]; 0.16 ppm) was 20% and the “Kill rate [%] after 3 days” value ([3]; 0.8 ppm) was 40%. For the same molecule, the “Kill rate [%] after 1 day” value ([4]; 4 ppm) was 0%.

With `O=S(=O)(CCC(F)=C(F)F)c1ncc(Cl)s1` [(IC)] the “Kill rate [%] after 3 days” value ([1]; 500 ppm) was 0%, the “Kill rate [%] after 3 days” value ([2]; 500 ppm, cabbage leaf dip) was 0% and 5% and the “Kill rate [%] after 3 days” value ([3]; 500 ppm, cabbage leaf dip) was 0%. For the same molecule, the “Kill rate [%] after 6 days” value ([3]; 500 ppm) was 20%, the “Kill rate [%] after 1 day” value ([4]; 100 ppm, cabbage leaf dip) was 0% and the “Kill rate [%] after 6 days” value ([4]; 100 ppm) was 0%.

For `CCOC(=O)OC1=C(c2cc(C)ccc2C)C(=O)NC12CCC(OC)CC2` (stereo not drawn) [(IIA), carboxylic acid, 3-(2,5-dimethylphenyl)-8-methoxy-2-oxo-1-azaspiro[4.5]dec-3-en-4-yl ethyl ester, (9Cl)], the “Kill rate [%] after 3 days” value ([2]; 4 ppm) was 95%, the “Kill rate [%] after 6 days” value ([3]; 100 ppm) was 30% and the “Kill rate [%] after 6 days” value ([4]; 4 ppm) was 55%.

`CNC(=O)O/N=C/C(C)(C)SC` [aldicarb] was tested, and the “Kill rate [%] after 3 days” value ([1]; 20 ppm) was 35% and the “Kill rate [%] after 6 days” value [2] was 0%.

In the case of `CN/C(=N\[N+](=O)[O-])NCc1cnc(Cl)s1` [clothianidin], the “Kill rate [%] after 3 days” value ([1]; 4 ppm) is reported as 15% and the “Kill rate [%] after 3 days” value ([3]; 4 ppm) is reported as 85%.

With `N#Cc1nn(-c2c(Cl)cc(C(F)(F)F)cc2Cl)c(N)c1[S+]([O-])C(F)(F)F` (stereo not drawn) [fipronil] the “Kill rate [%] after 6 days” value ([3]; 0.8 ppm) was 0%.

`O=[N+]([O-])NC1=NCCN1Cc1ccc(Cl)nc1` [imidacloprid] was tested, and the “Kill rate [%] after 3 days” value ([1]; 20 ppm) was 45% and the “Kill rate [%] after 6 days” value [2] was 5%.

For `CCOP(=S)(Oc1cnc(C(C)(C)C)nc1)OC(C)C` (stereo not drawn) [tebupirimfos], the “Kill rate [%] after 3 days” value ([2]; 0.8 ppm) was 0%, the “Kill rate [%] after 6 days” value ([3]; 0.8 ppm) was 0% and the “Kill rate [%] after 6 days” value ([4]; 20 ppm) was 35%.

In the case of spinosad, the “Kill rate [%] after 3 days” value ([3]; 0.16 ppm) is reported as 60%.
